Values quoted from earlier work, collected in patent US11052154B2, “Ras protein degradation inducing molecule and pharmaceutical composition” (Tokyo University of Science Foundation, priority 2016, dated 2021).

Tests used:
β2i = β2i (Homo sapiens, UniProt P40306); conditions: Table 18, 20S immunoproteasome inhibitor; cited from earlier work
β5i = β5i (Homo sapiens, UniProt P28062); conditions: Table 18, 20S immunoproteasome inhibitor; cited from earlier work

| SMILES | Others: immunoproteasome subunit inhibited (β2i) (β2i) | Others: immunoproteasome subunit inhibited (β5i) (β5i) |
| --- | --- | --- |
| CCCC[C@@H](C=O)NC(=O)[C@H](CC(C)C)NC(=O)OCc1ccccc1 [IPSI-001] | β2i is inhibited | – |
| COc1ccc(C[C@H](NC(=O)[C@H](C)NC(=O)CN2CCOCC2)C(=O)N[C@@H](Cc2ccccc2)C(=O)[C@@]2(C)CO2)cc1 [PR-957] | – | β5i is inhibited |
